Experimental data reported in US20230072683A1, “PYRIDO-PYRIMIDIN DERIVATIVES AND PHARMACEUTICAL COMPOSITION, FOR USE IN PREVENTING OR TREATING PI3 KINASE RELATED DISEASES, COMPRISING SAME AS ACTIVE INGREDIENT” (BORYUNG PHARMACEUTICAL CO., LTD, priority 2019, published 2023).

How the values were obtained:
[1] = target: PI3K-δ (PI3K(p1108/p857) (h)) (Homo sapiens, UniProt O00329); test: Evaluation of inhibitory activity against PI3K-δ (HTRF kinase assay); assay type: biochemical; conditions: for inhibition at 0.01 µM: compound concentration 0.01 μM, read-out: EXP_VALUE(% Inhibition) PI3K-δ 0.01 μM; for inhibition at 0.1 µM: compound concentration 0.1 μM, read-out: EXP_VALUE(% Inhibition) PI3K-δ 0.1 μM
PI3K-δ (PI3K(p1108/p857) (h)), sequence (O00329 whole entry, the tested form may be a part): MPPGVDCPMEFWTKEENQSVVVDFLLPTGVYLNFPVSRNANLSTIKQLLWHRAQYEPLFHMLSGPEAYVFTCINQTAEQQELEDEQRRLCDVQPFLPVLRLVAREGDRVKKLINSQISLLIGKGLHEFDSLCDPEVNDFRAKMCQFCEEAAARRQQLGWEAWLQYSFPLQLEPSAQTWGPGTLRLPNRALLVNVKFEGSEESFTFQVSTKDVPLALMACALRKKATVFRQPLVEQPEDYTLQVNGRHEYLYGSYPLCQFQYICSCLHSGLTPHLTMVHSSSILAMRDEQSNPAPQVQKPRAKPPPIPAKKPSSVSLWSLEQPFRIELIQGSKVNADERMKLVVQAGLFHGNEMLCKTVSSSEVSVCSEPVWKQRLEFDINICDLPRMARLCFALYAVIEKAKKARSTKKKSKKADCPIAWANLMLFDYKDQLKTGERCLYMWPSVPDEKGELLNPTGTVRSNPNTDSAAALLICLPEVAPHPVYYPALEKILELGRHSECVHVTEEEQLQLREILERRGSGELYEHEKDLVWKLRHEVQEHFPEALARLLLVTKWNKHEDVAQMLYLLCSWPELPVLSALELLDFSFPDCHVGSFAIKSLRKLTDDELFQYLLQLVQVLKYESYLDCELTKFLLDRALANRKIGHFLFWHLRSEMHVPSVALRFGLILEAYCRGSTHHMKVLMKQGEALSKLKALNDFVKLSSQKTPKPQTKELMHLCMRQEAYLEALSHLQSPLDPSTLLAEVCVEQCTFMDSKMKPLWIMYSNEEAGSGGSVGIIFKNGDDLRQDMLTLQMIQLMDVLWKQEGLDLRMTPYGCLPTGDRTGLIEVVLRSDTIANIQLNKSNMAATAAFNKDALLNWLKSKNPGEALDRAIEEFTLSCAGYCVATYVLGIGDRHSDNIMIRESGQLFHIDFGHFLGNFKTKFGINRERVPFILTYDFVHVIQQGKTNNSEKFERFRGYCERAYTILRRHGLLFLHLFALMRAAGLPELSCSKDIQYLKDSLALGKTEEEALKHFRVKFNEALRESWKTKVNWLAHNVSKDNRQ
PI3K-δ (PI3K(p1108/p857) (h)), sequence (P27986 whole entry partner, the tested form may be a part): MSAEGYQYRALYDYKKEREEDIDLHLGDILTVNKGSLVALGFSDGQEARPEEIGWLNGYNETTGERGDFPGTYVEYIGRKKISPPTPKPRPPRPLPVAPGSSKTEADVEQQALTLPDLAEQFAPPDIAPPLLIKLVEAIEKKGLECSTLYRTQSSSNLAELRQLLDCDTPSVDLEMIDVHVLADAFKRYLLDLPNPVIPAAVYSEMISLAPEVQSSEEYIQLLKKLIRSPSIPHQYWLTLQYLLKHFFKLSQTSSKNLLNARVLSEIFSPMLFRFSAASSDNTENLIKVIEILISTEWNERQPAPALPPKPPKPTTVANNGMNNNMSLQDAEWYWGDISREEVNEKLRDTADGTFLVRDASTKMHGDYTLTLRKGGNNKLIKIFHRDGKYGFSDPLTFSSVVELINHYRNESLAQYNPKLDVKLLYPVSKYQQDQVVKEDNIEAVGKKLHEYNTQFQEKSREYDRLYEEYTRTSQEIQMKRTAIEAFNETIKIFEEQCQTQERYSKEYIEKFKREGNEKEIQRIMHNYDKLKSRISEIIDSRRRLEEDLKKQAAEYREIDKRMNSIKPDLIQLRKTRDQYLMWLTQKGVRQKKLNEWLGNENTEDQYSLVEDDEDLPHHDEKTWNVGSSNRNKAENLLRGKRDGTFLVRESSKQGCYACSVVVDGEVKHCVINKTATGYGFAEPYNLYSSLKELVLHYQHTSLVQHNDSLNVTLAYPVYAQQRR
How it was run: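 HTRF read-out (665/620 nm ratio ×10000) used Eu-labelled anti-GST, GST-tagged GRP1 PH domain and streptavidin-allophycocyanin after EDTA/PIP3 stop.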

DNA-PK(h) = DNA-PK(h) (Homo sapiens, UniProt P78527); test: Evaluation of inhibitory activity against DNA-PK (HTRF kinase assay, GST-cMyc-p53 substrate); assay type: biochemical; conditions: for inhibition at 0.01 µM: compound concentration 0.01 μM, read-out: EXP_VALUE(% Inhibition) DNA-PK(h) 0.01 μM; for inhibition at 0.1 µM: compound concentration 0.1 μM, read-out: EXP_VALUE(% Inhibition) DNA-PK(h) 0.1 μM
How it was run: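 p53 Ser15 phosphorylation by human DNA-PK was measured by time-resolved FRET ratio (665/620 nm ×10000) using Eu-labelled anti-phospho-Ser15 and d2 anti-GST antibodies. Substrate GST-cMyc-p53 at 50 μM; Mg/ATP-initiated, 30 min at room temperature, EDTA stop.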

inhibition at 0.01 µM [1] [%]	inhibition at 0.1 µM [1] [%]	inhibition at 0.01 µM (DNA-PK(h)) [%]	inhibition at 0.1 µM (DNA-PK(h)) [%]	Structure (SMILES)
41	85	23	69	COc1ccccc1Oc1cccc2c(Cl)c([C@H](C)Nc3ncnc4[nH]ccc(=O)c34)n(-c3ccccc3)c(=O)c12 [Example 366, (S)-4-((1-(4-chloro-8-(2-methoxyphenoxy)-1-oxo-2-phenyl-1,2-dihydroisoquinolin-3-yl)ethyl)amino)pyrido[2,3-d]pyrimidin-5(8H)-one]
40		86		C[C@H](Nc1ncnc2[nH]ccc(=O)c12)c1c(Cl)c2cccc(-c3cccc(N4CCOCC4)c3)c2c(=O)n1-c1ccccc1 [Example 173, (S)-4-((1-(4-chloro-8-(3-morpholinophenyl)-1-oxo-2-phenyl-1,2-dihydroisoquinolin-3-yl)ethyl)amino)pyrido[2,3-d]pyrimidin-5(8H)-one]
67		77		CC(C)S(=O)(=O)c1ccc(-c2cccc3c(Cl)c([C@H](C)Nc4ncnc5[nH]ccc(=O)c45)n(-c4ccccc4)c(=O)c23)cc1 [Example 209, (S)-4-((1-(4-chloro-8-(4-(isopropylsulfonyl)phenyl)-1-oxo-2-phenyl-1,2-dihydroisoquinolin-3-yl)ethyl)amino)pyrido[2,3-d]pyrimidin-5(8H)-one]
81		63		C[C@H](Nc1ncnc2[nH]ccc(=O)c12)c1c(Cl)c2cccc(-c3ccc(OC4CCOCC4)nc3)c2c(=O)n1-c1ccccc1 [Example 162, (S)-4-((1-(4-chloro-1-oxo-2-phenyl-8-(6-((tetrahydro-2H-pyran-4-yl)oxy)pyridin-3-yl)-1,2-dihydroisoquinolin-3-yl)ethyl)amino)pyrido[2,3-d]pyrimidin-5(8H)-one]
15	45	9	58	C[C@H](Nc1ncnc2[nH]ccc(=O)c12)c1c(Cl)c2cccc(N3CC4CCCC4C3)c2c(=O)n1-c1ccccc1 (stereo partly drawn) [Example 342, 4-(((1S)-1-(4-chloro-8-(hexahydrocyclopenta[c]pyrrol-2 (1H)-yl)-1-oxo-2-phenyl-1,2-dihydroisoquinolin-3-yl)ethyl)amino)pyrido[2,3-d]pyrimidin-5(8H)-one]
79		14		CC(C)NC(=O)c1cccc2c(Cl)c([C@H](C)Nc3ncnc4[nH]ccc(=O)c34)n(-c3ccccc3)c(=O)c12 [Example 282, (S)-4-chloro-N-isopropyl-1-oxo-3-(1-((5-oxo-5,8-dihydropyrido[2,3-d]pyrimidin-4-yl)amino)ethyl)-2-phenyl-1,2-dihydroisoquinoline-8-carboxamide]
93		73		C[C@H](Nc1ncnc2[nH]ccc(=O)c12)c1c(Cl)c2cccc(-c3cn[nH]c3)c2c(=O)n1-c1ccccc1 [Example 227, (S)-4-((1-(4-chloro-1-oxo-2-phenyl-8-(1H-pyrazol-4-yl)-1,2-dihydroisoquinolin-3-yl)ethyl)amino)pyrido[2,3-d]pyrimidin-5(8H)-one]
35.9	83.3	12.3	57.3	C[C@H](Nc1ncnc2[nH]ccc(=O)c12)c1c(Cl)c2cccc(-n3cccn3)c2c(=O)n1-c1ccccc1 [Example 320, (S)-4-((1-(4-chloro-1-oxo-2-phenyl-8-(1H-pyrazol-1-yl)-1,2-dihydroisoquinolin-3-yl)ethyl)amino)pyrido[2,3-d]pyrimidin-5(8H)-one]

More lines, now with the values behind:

Structure (SMILES)	inhibition at 0.01 µM [1] [%]	inhibition at 0.1 µM [1] [%]	inhibition at 0.01 µM (DNA-PK(h)) [%]	inhibition at 0.1 µM (DNA-PK(h)) [%]
C[C@H](Nc1ncnc2[nH]ccc(=O)c12)c1c(Cl)c2cccc(/C=C/c3ccccc3)c2c(=O)n1-c1ccccc1 [Example 70, (S,E)-4-((1-(4-chloro-1-oxo-2-phenyl-8-styryl-1,2-dihydroisoquinolin-3-yl)ethyl)amino)pyrido[2,3-d]pyrimidin-5(8H)-one]	10.2	29.9	-1.2	23.6
C[C@H](Nc1ncnc2[nH]ccc(=O)c12)c1c(Cl)c2cccc(SCc3ccc(Cl)cc3)c2c(=O)n1-c1ccccc1 [Example 369, (S)-4-((1-(4-chloro-8-((4-chlorobenzyl)thio)-1-oxo-2-phenyl-1,2-dihydroisoquinolin-3-yl)ethyl)amino)pyrido[2,3-d]pyrimidin-5(8H)-one]	5	27	14	54
C[C@H](Nc1ncnc2[nH]ccc(=O)c12)c1c(Cl)c2cccc(-c3cncnc3)c2c(=O)n1-c1ccccc1 [Example 102, (S)-4-((1-(4-chloro-1-oxo-2-phenyl-8-(pyrimidin-5-yl)-1,2-dihydroisoquinolin-3-yl)ethyl)amino)pyrido[2,3-d]pyrimidin-5(8H)-one]	110	105	73	94
C[C@H](Nc1ncnc2[nH]ccc(=O)c12)c1c(Cl)c2cccc(-c3ccc4ncn(C)c4c3)c2c(=O)n1-c1ccccc1 [Example 111, (S)-4-((1-(4-chloro-8-(1-methyl-1H-benzo[d]imidazol-6-yl)-1-oxo-2-phenyl-1,2-dihydroisoquinolin-3-yl)ethyl)amino)pyrido[2,3-d]pyrimidin-5(8H)-one]	80	96	87	98
Cc1ccsc1-c1cccc2c(Cl)c([C@H](C)Nc3ncnc4[nH]ccc(=O)c34)n(-c3ccccc3)c(=O)c12 [Example 243, (S)-4-((1-(4-chloro-8-(3-methylthiophen-2-yl)-1-oxo-2-phenyl-1,2-dihydroisoquinolin-3-yl)ethyl)amino)pyrido[2,3-d]pyrimidin-5(8H)-one]	45		32	
C[C@H](Nc1ncnc2[nH]ccc(=O)c12)c1c(Cl)c2cccc(OCc3ccccc3)c2c(=O)n1-c1ccccc1 [Example 362, (S)-4-((1-(8-(benzyloxy)-4-chloro-1-oxo-2-phenyl-1,2-dihydroisoquinolin-3-yl)ethyl)amino)pyrido[2,3-d]pyrimidin-5(8H)-one]	21	64	29	67
COc1ncc(-c2cccc3c(Cl)c([C@H](C)Nc4ncnc5[nH]ccc(=O)c45)n(-c4ccccc4)c(=O)c23)nc1OC [Example 28, (S)-4-((1-(4-chloro-8-(5,6-dimethoxypyrazin-2-yl)-1-oxo-2-phenyl-1,2-dihydroisoquinolin-3-yl)ethyl)amino)pyrido[2,3-d]pyrimidin-5(8H)-one]	69		61	
C[C@H](Nc1ncnc2[nH]ccc(=O)c12)c1c(Cl)c2cccc(N3CCC(c4ccccc4)CC3)c2c(=O)n1-c1ccccc1 [Example 336, (S)-4-((1-(4-chloro-1-oxo-2-phenyl-8-(4-phenylpiperidin-1-yl)-1,2-dihydroisoquinolin-3-yl)ethyl)amino)pyrido[2,3-d]pyrimidin-5(8H)-one]	6	19	7	14
